Molecular target: α7 nAChR subtype (Rattus norvegicus, UniProt Q05941)
Format: binding
Settings: read-out: KD of radioligand from saturation curves

Sequence of α7 nAChR subtype (Q05941 23-502 limits assumed): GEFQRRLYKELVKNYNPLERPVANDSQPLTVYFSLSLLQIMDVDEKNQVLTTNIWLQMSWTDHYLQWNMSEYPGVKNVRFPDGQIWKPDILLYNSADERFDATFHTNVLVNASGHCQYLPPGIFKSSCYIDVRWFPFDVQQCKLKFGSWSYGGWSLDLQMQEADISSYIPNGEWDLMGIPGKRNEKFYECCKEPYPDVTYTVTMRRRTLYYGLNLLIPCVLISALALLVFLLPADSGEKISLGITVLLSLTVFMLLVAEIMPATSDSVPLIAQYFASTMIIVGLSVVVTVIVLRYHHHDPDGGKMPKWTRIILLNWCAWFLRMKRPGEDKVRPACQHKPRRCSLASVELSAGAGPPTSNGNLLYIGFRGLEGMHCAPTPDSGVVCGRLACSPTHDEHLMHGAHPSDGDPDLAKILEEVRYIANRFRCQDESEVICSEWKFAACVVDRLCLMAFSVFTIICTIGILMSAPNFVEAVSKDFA

For 125I-α-Bungarotoxin [[^125I]-α-BTX], the Kd was 1.67 nM.
